Measured values published in ChEMBL document CHEMBL4402583, “Rational Substitution of ε-Lysine for α-Lysine Enhances the Cell and Membrane Selectivity of Pore-Forming Melittin” (J Med Chem, 2020).
Converted amounts (≈) assume the structure as drawn. The source made the active and inactive calls. No cut-off for these calls is given here.

Assays:
Pseudomonas aeruginosa = assay: Antibacterial activity against Pseudomonas aeruginosa assessed as reduction in bacterial growth incubated for 24 hrs by broth microdilution method; assay type: functional
Candida albicans = assay: Antifungal activity against Candida albicans assessed as reduction in fungal growth incubated for 24 hrs by broth microdilution method; assay type: functional
Staphylococcus aureus [1] = assay: Antibacterial activity against methicillin-sensitive Staphylococcus aureus assessed as reduction in bacterial growth incubated for 24 hrs by broth microdilution method; assay type: functional
Staphylococcus aureus [2] = assay: Antibacterial activity against methicillin-resistance Staphylococcus aureus assessed as reduction in bacterial growth incubated for 24 hrs by broth microdilution method; assay type: functional
Enterococcus = assay: Antibacterial activity against vancomycin-resistant Enterococcus assessed as reduction in bacterial growth incubated for 24 hrs by broth microdilution method; assay type: functional
Acinetobacter baumannii [3] = assay: Antibacterial activity against multidrug-resistant Acinetobacter baumannii assessed as reduction in bacterial growth incubated for 24 hrs by broth microdilution method; assay type: functional
Enterobacteriaceae = assay: Antibacterial activity against Carbapenem-Resistant Enterobacteriaceae assessed as reduction in bacterial growth incubated for 24 hrs by broth microdilution method; assay type: functional
[4] = Cytotoxicity against HDF cells assessed as cell viability at 500 ug/ml incubated for 24 hrs by MTS assay relative to control; assay type: cell-based; settings: human, HDF cells (NHDF, human dermal fibroblasts); read-out: Activity
NHDF = assay: Cytotoxicity against HDF cells assessed as truncation and reduction in cytoskeleton at 500 ug/ml incubated for 24 hrs by Alexa Fluor […] phalloidin-FITC/Hoescht dye staining based fluorescence microscopic analysis; assay type: cell-based; settings: human
HaCaT = assay: Cytotoxicity against human HaCaT cells assessed as truncation and reduction in cytoskeleton at 500 ug/ml incubated for 24 hrs by Alexa Fluor […] phalloidin-FITC/Hoescht dye staining based fluorescence microscopic analysis; assay type: cell-based
[5] = Hemolytic activity against human erythrocytes assessed as hemoglobin release incubated for 1 hr; assay type: ADME, cell-based, Erythrocyte; settings: read-out: HD50
Enterococcus faecalis [6] = assay: Antibacterial activity against vancomycin-resistant Enterococcus faecalis ATCC 29212 assessed as log10 reduction in bacterial viability at 2 to 4 times MIC incubated for 30 mins in MHB medium followed by reincubation on MH agar plate for 24 to 48 hrs by time kill kinetics analysis; assay type: functional
Enterococcus faecalis [7] = assay: Antibacterial activity against vancomycin-resistant Enterococcus faecalis 1010 assessed as log10 reduction in bacterial viability at 2 to 4 times MIC incubated for 30 mins in MHB medium followed by reincubation on MH agar plate for 24 to 48 hrs by time kill kinetics analysis; assay type: functional
Enterococcus faecalis [8] = assay: Antibacterial activity against vancomycin-resistant Enterococcus faecalis 1002 assessed as log10 reduction in bacterial viability at 2 to 4 times MIC incubated for 30 mins in MHB medium followed by reincubation on MH agar plate for 24 to 48 hrs by time kill kinetics analysis; assay type: functional
Acinetobacter baumannii [9] = assay: Antibacterial activity against Acinetobacter baumannii 1001 assessed as reduction in bacterial viability at 2 or 4 times MIC incubated up to 24 hrs in MHB medium followed by reincubation on MH agar plate for 24 to 48 hrs by time kill kinetics assay; assay type: functional, organism-based
Escherichia coli [10] = assay: Antibacterial activity against Escherichia coli 1004 assessed as reduction in bacterial viability at 2 or 4 times MIC incubated up to 24 hrs in MHB medium followed by reincubation on MH agar plate for 24 to 48 hrs by time kill kinetics assay; assay type: functional, organism-based
Klebsiella pneumoniae = assay: Antibacterial activity against Klebsiella pneumoniae 1008 assessed as reduction in bacterial viability at 2 or 4 times MIC incubated up to 24 hrs in MHB medium followed by reincubation on MH agar plate for 24 to 48 hrs by time kill kinetics assay; assay type: functional, organism-based
Enterococcus faecalis [11] = assay: Induction of pore formation in intact vancomycin-resistant Enterococcus faecalis ATCC 29212 cell membrane assessed as SG uptake at 2 times MIC by SG dye based fluorescence based assay; assay type: organism-based
Enterococcus faecalis [12] = assay: Induction of pore formation in intact vancomycin-resistant Enterococcus faecalis 1002 cell membrane assessed as SG uptake at 2 times MIC by SG dye based fluorescence based assay; assay type: organism-based
Acinetobacter baumannii [13] = assay: Induction of pore formation in intact Acinetobacter baumannii 1001 cell membrane assessed as SG uptake at 2 times MIC by SG dye based fluorescence based assay; assay type: organism-based
Escherichia coli [14] = assay: Induction of pore formation in intact Escherichia coli 1004 cell membrane assessed as SG uptake at 2 times MIC by SG dye based fluorescence based assay; assay type: organism-based
Acinetobacter baumannii [15] = assay: Antibacterial activity against Acinetobacter baumannii ATCC 19606 assessed as reduction in bacterial growth at sublethal concentrations measured after 20 serial passages by broth microdilution method; assay type: functional, organism-based; settings: ATCC 19606 = CIP 70.34 = JCM 6841
Enterococcus faecalis [16] = assay: Resistance index, ratio of MIC for vancomycin-resistant Enterococcus faecalis 1010 measured after 18 serial passages by broth microdilution method to MIC for vancomycin-resistant Enterococcus faecalis 1010 incubated for 24 hrs by broth microdilution method; assay type: functional
T-cell [17] = assay: Immunogenicity in human PBL T cells assessed as increase in IL-2 production at 62.5 or 125 ug/ml incubated for 24 hrs by ELISA; assay type: ADME, cell-based
T-cell [18] = assay: Immunogenicity in human PBL T cells assessed as increase in IL-4 production at 62.5 or 125 ug/ml incubated for 24 hrs by ELISA; assay type: ADME, cell-based
T-cell [19] = assay: Immunogenicity in human PBL T cells assessed as increase in IL-5 production at 62.5 or 125 ug/ml incubated for 24 hrs by ELISA; assay type: ADME, cell-based
T-cell [20] = assay: Immunogenicity in human PBL T cells assessed as increase in IFN-gamma production at 62.5 or 125 ug/ml incubated for 24 hrs by ELISA; assay type: ADME, cell-based
[21] = Stability of the compound in rabbit tear fluid measured after 2 hrs by UPLC-MS analysis; assay type: ADME, Oryctolagus cuniculus
[22] = Stability of the compound in rabbit tear fluids assessed as parent compound remaining measured after 4 hrs by UPLC-MS analysis; assay type: ADME, Oryctolagus cuniculus; settings: tear fluid, read-out: Stability
Oryctolagus cuniculus [23] = assay: Induction of reepithelialization in injured New Zealand white rabbit cornea assessed as wound healing at 0.3% administered topically for qid measured at day 1 post-injury by fluorescein sodium staining based microscopic imaging analysis (reference value: 89.9 +/- 2.9 %); assay type: organism-based; settings: in vivo, topical_or_ocular
Oryctolagus cuniculus [24] = assay: Induction of reepithelialization in injured New Zealand white rabbit cornea assessed as wound healing administered topically for qid measured at day 2 post-injury by fluorescein sodium staining based microscopic imaging analysis (reference value: 76.6 +/- 4.5 %); assay type: organism-based; settings: in vivo, topical_or_ocular
Oryctolagus cuniculus [25] = assay: Induction of reepithelialization in injured New Zealand white rabbit cornea assessed as wound healing administered topically for qid measured at day 3 post-injury by fluorescein sodium staining based microscopic imaging analysis (reference value: 63.9 +/- 5.3 %); assay type: organism-based; settings: in vivo, topical_or_ocular
Oryctolagus cuniculus [26] = assay: Induction of reepithelialization in injured New Zealand white rabbit cornea assessed as wound healing administered topically for qid measured at day 4 post-injury by fluorescein sodium staining based microscopic imaging analysis (reference value: 48.4 +/- 7.6 %); assay type: organism-based; settings: in vivo, topical_or_ocular
Oryctolagus cuniculus [27] = assay: Induction of reepithelialization in injured New Zealand white rabbit cornea assessed as wound healing administered topically for qid measured at day 5 post-injury by fluorescein sodium staining based microscopic imaging analysis (reference value: 39.8 +/- 6.2 %); assay type: organism-based; settings: in vivo, topical_or_ocular
Oryctolagus cuniculus [28] = assay: Induction of reepithelialization in injured New Zealand white rabbit cornea assessed as wound healing administered topically for qid measured at day 6 post-injury by fluorescein sodium staining based microscopic imaging analysis (reference value: 24.1 +/- 8.5 %); assay type: organism-based; settings: in vivo, topical_or_ocular
Oryctolagus cuniculus [29] = assay: Induction of reepithelialization in injured New Zealand white rabbit cornea assessed as wound healing administered topically for qid measured at day 7 post-injury by fluorescein sodium staining based microscopic imaging analysis (reference value: 8.6 %); assay type: organism-based; settings: in vivo, topical_or_ocular
Oryctolagus cuniculus [30] = assay: Induction of reepithelialization in injured New Zealand white rabbit cornea assessed as wound healing administered topically for qid measured at day 8 post-injury by fluorescein sodium staining based microscopic imaging analysis (reference value: 3.8 %); assay type: organism-based; settings: in vivo, topical_or_ocular

With `CC[C@H](C)[C@H](NC(=O)CN)C(=O)NCC(=O)N[C@@H](C)C(=O)N[C@H](C(=O)N[C@@H](CC(C)C)C(=O)NCCC[C@@H](CN)C(=O)N[C@H](C(=O)N[C@@H](CC(C)C)C(=O)N[C@H](C(=O)N[C@H](C(=O)NCC(=O)N[C@@H](CC(C)C)C(=O)N1CCC[C@H]1C(=O)N[C@@H](C)C(=O)N[C@@H](CC(C)C)C(=O)N[C@H](C(=O)N[C@@H](CO)C(=O)N[C@@H](Cc1c[nH]c2ccccc12)C(=O)N[C@H](C(=O)N[C@@H](CCCCN)C(=O)N[C@@H](CCCNC(=N)N)C(=O)NCCC[C@@H](CN)C(=O)N[C@@H](CCCNC(=N)N)C(=O)N[C@@H](CCC(N)=O)C(=O)N[C@@H](CCC(N)=O)C(N)=O)[C@@H](C)CC)[C@@H](C)CC)[C@@H](C)O)[C@@H](C)O)C(C)C)C(C)C` the MIC (Pseudomonas aeruginosa) was 8 to 64 µg/mL (≈ 2.81 to 22.5 µM), the MIC50 (Pseudomonas aeruginosa) was 32 µg/mL (≈ 11.2 µM) and the MIC (Candida albicans) was 16 to 32 µg/mL (≈ 5.62 to 11.2 µM). For the same molecule, the MIC50 (Candida albicans) was 32 µg/mL (≈ 11.2 µM), the MIC (Staphylococcus aureus [1]) was 16 to 64 µg/mL (≈ 5.62 to 22.5 µM) and the MIC50 (Staphylococcus aureus [1]) was 32 µg/mL (≈ 11.2 µM). The MIC50 (Staphylococcus aureus [2]) was 32 µg/mL (≈ 11.2 µM), the MIC (Enterococcus) was 4 to 16 µg/mL (≈ 1.41 to 5.62 µM) and the MIC50 (Enterococcus) was 8 µg/mL (≈ 2.81 µM). The MIC (Acinetobacter baumannii [3]) was 4 to 8 µg/mL (≈ 1.41 to 2.81 µM), the MIC50 (Acinetobacter baumannii [3]) was 6 µg/mL (≈ 2.11 µM) and the MIC (Enterobacteriaceae) was 4 to 128 µg/mL (≈ 1.41 to 45 µM). The MIC50 (Enterobacteriaceae) was 16 µg/mL (≈ 5.62 µM), the viability at 24 h, 500 ug/ml [4] was 90.7% and the Activity (NHDF) was “Toxic”. The Activity (HaCaT) was “Toxic”, the HC50 at 1 h [5] was 175 µg/mL and the “log(activity)” value (Enterococcus faecalis [6]) was over 5. The “log(activity)” value (Enterococcus faecalis [7]) was over 5, the “log(activity)” value (Enterococcus faecalis [8]) was over 5 and the Activity (Acinetobacter baumannii [9]) was “Active”. The Activity (Escherichia coli [10]) was “Active”, the Activity (Klebsiella pneumoniae) was “Active” and the Activity (Enterococcus faecalis [11]) was “Active”. For the same molecule, the Activity (Enterococcus faecalis [12]) was “Active”, the Activity (Acinetobacter baumannii [13]) was “Active” and the Activity (Escherichia coli [14]) was “Active”. For the same molecule, the Activity (Acinetobacter baumannii [15]) was “Active”, the Ratio (Enterococcus faecalis [16]) was 16 and the Activity (T-cell [17]) was “Non-Toxic”. The Activity (T-cell [18]) was “Non-Toxic”, the Activity (T-cell [19]) was “Non-Toxic” and the Activity (T-cell [20]) was “Non-Toxic”. The Stability [21] was “Stable”, the remaining at 4 h [22] was 87.9% and the Activity (Oryctolagus cuniculus [23]) was 90.9%. The Activity (Oryctolagus cuniculus [24]) was 75.4%, the Activity (Oryctolagus cuniculus [25]) was 63.6% and the Activity (Oryctolagus cuniculus [26]) was 50.1%. It also gave an Activity (Oryctolagus cuniculus [27]) of 42.9%, an Activity (Oryctolagus cuniculus [28]) of 30.2% and an Activity (Oryctolagus cuniculus [29]) of 12.6%. The Activity (Oryctolagus cuniculus [30]) was 5.2%.
